One may read the MIC as the least concentration at which growth counts as inhibited. Lower therefore signals a more susceptible organism. As usually defined, the MFC is the lowest tested concentration that kills the fungus rather than only halting it. A higher MFC goes with weaker fungicidal potency.

In brackets after ≈: the same amount, converted by molar mass.

We go through 5 compounds from ChEMBL document CHEMBL4270534, “Novel carbazole-triazole conjugates as DNA-targeting membrane active potentiators against clinical isolated fungi” (Eur J Med Chem, 2018).

Type in all cases: functional
The subject of assay [1] is Candida albicans. Nature of the assay: Antifungal activity against Candida albicans after 24 hrs by two-fold broth microdilution assay. In general terms: In broth dilution the organism is exposed to a series of concentrations in liquid medium.
Assay [2] has as its system Candida tropicalis. As to the kind of experiment: Antifungal activity against Candida tropicalis after 24 hrs by two-fold broth microdilution assay.
The subject of assay [3] is Aspergillus fumigatus. As to the kind of experiment: Antifungal activity against Aspergillus fumigatus after 24 hrs by two-fold broth microdilution assay.
In assay [4] the test system is Candida albicans. As to the kind of experiment: Antifungal activity against Candida albicans ATCC 90023 after 24 hrs by two-fold broth microdilution assay. The conditions noted are these: ATCC 90023, 24 h.
Assay [5] relates to Candida parapsilosis. As to the kind of experiment: Antifungal activity against Candida parapsilosis ATCC 22019 after 24 hrs by two-fold broth microdilution assay. The note with it: Lodderomyces parapsilosis, ATCC 22019, 24 h.
Assay [6] concerns Candida albicans. As to the kind of experiment: Fungicidal activity against Candida albicans incubated for 24 hrs followed by plating onto tryptic soy agar medium and measured after 24 hrs by broth microdilution method.
Assay [7] has as its system Candida tropicalis. As to the kind of experiment: Fungicidal activity against Candida tropicalis incubated for 24 hrs followed by plating onto tryptic soy agar medium and measured after 24 hrs by broth microdilution method.
Assay [8] has as its system Candida parapsilosis. Nature of the assay: Fungicidal activity against Candida parapsilosis ATCC 22019 incubated for 24 hrs followed by plating onto tryptic soy agar medium and measured after 24 hrs by broth microdilution method. The note with it: Lodderomyces parapsilosis, ATCC 22019, 24 h.
The test system of assay [9] is Candida albicans. As to the kind of experiment: Ratio of MFC to MIC for Candida albicans.
In assay [10] the test system is Candida tropicalis. Nature of the assay: Ratio of MFC to MIC for Candida tropicalis.
In assay [11] the test system is Candida parapsilosis. As to the kind of experiment: Ratio of MFC to MIC for Candida parapsilosis ATCC 22019.
In assay [12] the test system is Staphylococcus aureus. Nature of the assay: Antibacterial activity against Staphylococcus aureus after 24 hrs by micro broth dilution method.
For assay [13], the system named is Staphylococcus aureus. As to the kind of experiment: Antibacterial activity against methicillin-resistant Staphylococcus aureus after 24 hrs by micro broth dilution method.
Assay [14] relates to Enterococcus faecalis. As to the kind of experiment: Antibacterial activity against Enterococcus faecalis after 24 hrs by micro broth dilution method.
In assay [15] the test system is Staphylococcus aureus. Nature of the assay: Antibacterial activity against Staphylococcus aureus ATCC 25923 after 24 hrs by micro broth dilution method. The note with it: ATCC 25923, 24 h.
Assay [16] deals with Staphylococcus aureus. Nature of the assay: Antibacterial activity against Staphylococcus aureus ATCC 29213 after 24 hrs by micro broth dilution method. The conditions noted are these: ATCC 29213, 24 h.
Assay [17] has as its system Klebsiella pneumoniae. As to the kind of experiment: Antibacterial activity against Klebsiella pneumoniae after 24 hrs by micro broth dilution method.
In assay [18] the test system is Escherichia coli. Nature of the assay: Antibacterial activity against Escherichia coli after 24 hrs by micro broth dilution method.
The subject of assay [19] is Acinetobacter baumannii. Nature of the assay: Antibacterial activity against Acinetobacter baumannii after 24 hrs by micro broth dilution method.
For assay [20], the system named is Pseudomonas aeruginosa. As to the kind of experiment: Antibacterial activity against Pseudomonas aeruginosa after 24 hrs by micro broth dilution method.
In assay [21] the test system is Pseudomonas aeruginosa. Nature of the assay: Antibacterial activity against Pseudomonas aeruginosa ATCC 27853 after 24 hrs by micro broth dilution method. The note with it: ATCC 27853, 24 h.
The test system of assay [22] is Escherichia coli. As to the kind of experiment: Antibacterial activity against Escherichia coli ATCC 25922 after 24 hrs by micro broth dilution method. The note with it: ATCC 25922, 24 h.

As to `OC(Cn1cncn1)(Cn1c2ccc(Br)cc2c2cc(Br)ccc21)c1ccc(F)cc1` (stereo unspecified), the MIC in assay [1] was 8 µg/mL (≈ 14.7 µM); in assay [2] it was 16 µg/mL (≈ 29.4 µM); in assay [3] it was 128 µg/mL (≈ 235 µM); in assay [4], 64 µg/mL (≈ 118 µM); in assay [5] it was 8 µg/mL (≈ 14.7 µM); in assay [12], 64 µg/mL (≈ 118 µM). The minimum inhibitory concentration (MIC) amounted to 64 µg/mL (≈ 118 µM) in [13]; 64 µg/mL (≈ 118 µM) in assay [14]; 32 µg/mL (≈ 58.8 µM) in assay [15]; 16 µg/mL (≈ 29.4 µM) in [16]; 256 µg/mL (≈ 470 µM) in [17]; 64 µg/mL (≈ 118 µM) in [18]. Moreover, the minimal inhibitory concentration (MIC) was 256 µg/mL (≈ 470 µM) in assay [19], 128 µg/mL (≈ 235 µM) in assay [20], 64 µg/mL (≈ 118 µM) in assay [21] and 16 µg/mL (≈ 29.4 µM) in assay [22]. The minimal fungicidal concentration (MFC) in assay [6] stood at 32 µg/mL (≈ 58.8 µM); in assay [7], 32 µg/mL (≈ 58.8 µM); in assay [8] it was 16 µg/mL (≈ 29.4 µM). Besides, the Ratio in [9] stood at 4; in [10] it was 2; in assay [11] it was 2.

With `OC(Cn1cncn1)(Cn1ccc2ccccc21)c1ccc(F)cc1F` (stereo unspecified), the MIC is 32 µg/mL (≈ 90.3 µM) in [1]; 64 µg/mL (≈ 181 µM) in [2]; 32 µg/mL (≈ 90.3 µM) in assay [3]; 128 µg/mL (≈ 361 µM) in [4]; 64 µg/mL (≈ 181 µM) in [5]; 128 µg/mL (≈ 361 µM) in assay [12]. In addition, the MIC in assay [13] worked out at 32 µg/mL (≈ 90.3 µM); in [14] it was 64 µg/mL (≈ 181 µM); in [15], 32 µg/mL (≈ 90.3 µM); in assay [16], 64 µg/mL (≈ 181 µM); in assay [17], 128 µg/mL (≈ 361 µM); in [18], 64 µg/mL (≈ 181 µM). Further, the MIC in [19] turned out to be 128 µg/mL (≈ 361 µM); in [20], 64 µg/mL (≈ 181 µM); in assay [21], 128 µg/mL (≈ 361 µM); in assay [22] it was 32 µg/mL (≈ 90.3 µM).

As to `CCn1cc(C(=O)O)c(=O)c2cc(F)c(N3CCNCC3)cc21` [NORFLOXACIN], the minimal inhibitory concentration (MIC) in assay [12] was 2 µg/mL (≈ 6.26 µM); in assay [13], 8 µg/mL (≈ 25.1 µM); in assay [14], 4 µg/mL (≈ 12.5 µM); in [15], 1 µg/mL (≈ 3.13 µM); in assay [16] it was 8 µg/mL (≈ 25.1 µM); in assay [17] it was 4 µg/mL (≈ 12.5 µM). The MIC in assay [18] amounted to 16 µg/mL (≈ 50.1 µM); in [19] it was 8 µg/mL (≈ 25.1 µM); in assay [20] it was 2 µg/mL (≈ 6.26 µM); in assay [21] it was 0.5 µg/mL (≈ 1.57 µM); in assay [22], 8 µg/mL (≈ 25.1 µM).

For the compound `OC(Cn1cncn1)(Cn1c2ccccc2c2cc(I)ccc21)c1ccc(F)cc1F` (stereo unspecified), the MIC in assay [1] came to 16 µg/mL (≈ 30.2 µM); in assay [2], 16 µg/mL (≈ 30.2 µM); in assay [3], 64 µg/mL (≈ 121 µM); in [4], 64 µg/mL (≈ 121 µM); in [5] it was 32 µg/mL (≈ 60.3 µM); in assay [12], 128 µg/mL (≈ 241 µM). Besides, the MIC was found to be 32 µg/mL (≈ 60.3 µM) in assay [13]; 16 µg/mL (≈ 30.2 µM) in assay [14]; 16 µg/mL (≈ 30.2 µM) in [15]; 16 µg/mL (≈ 30.2 µM) in assay [16]; 256 µg/mL (≈ 483 µM) in assay [17]; 256 µg/mL (≈ 483 µM) in assay [18]. Besides, the MIC in assay [19] came out at 128 µg/mL (≈ 241 µM); in [20] it was 128 µg/mL (≈ 241 µM); in [21], 256 µg/mL (≈ 483 µM); in assay [22] it was 32 µg/mL (≈ 60.3 µM).

In the case of `OC(Cn1cncn1)(Cn1c2ccc(Br)cc2c2cc(Br)ccc21)c1ccc(Cl)cc1` (stereo unspecified), the minimal inhibitory concentration (MIC) came to 8 µg/mL (≈ 14.3 µM) in [1]; 32 µg/mL (≈ 57.1 µM) in assay [2]; 64 µg/mL (≈ 114 µM) in assay [3]; 64 µg/mL (≈ 114 µM) in assay [4]; 32 µg/mL (≈ 57.1 µM) in assay [5]; 32 µg/mL (≈ 57.1 µM) in assay [12]. Also, the minimum inhibitory concentration (MIC) in assay [13] was determined as 16 µg/mL (≈ 28.5 µM); in assay [14], 16 µg/mL (≈ 28.5 µM); in assay [15] it was 32 µg/mL (≈ 57.1 µM); in [16], 16 µg/mL (≈ 28.5 µM); in assay [17], 256 µg/mL (≈ 457 µM); in assay [18], 128 µg/mL (≈ 228 µM). The MIC in assay [19] was 256 µg/mL (≈ 457 µM); in [20], 256 µg/mL (≈ 457 µM); in [21], 16 µg/mL (≈ 28.5 µM); in assay [22] it was 16 µg/mL (≈ 28.5 µM).
